The ΔTm is the shift of the melting midpoint relative to a reference.

Active and inactive are the calls of the source. The rule behind the calls is not given here.

The text below walks through data of ChEMBL document CHEMBL3585323, “Effect of intercalator substituent and nucleotide sequence on the stability of DNA- and RNA-naphthalimide complexes” (Bioorg Med Chem, 2015).

Assay [1] in a line: Binding affinity to 5'-d(GTCCGTCGGAC)-3'/5'-(GTCCGACGGAC)-3' DNA assessed as change in melting temperature at 1:1 DNA to compound molar ratio by spectrophotometric analysis.
The test system of assay [2] is Nucleic Acid. Put plainly: Induction of DNA intercalation using 5'-d(GTCCGCGGAC)2-3' at 250 uM by UV-vis spectrophotometric analysis. It is filed as nucleic-acid assay.
Assay [3] is described as follows: Binding affinity to 5'-d(ATATAGTATATA)-3'/5'-(TATATACTATAT)-3' DNA assessed as change in melting temperature at 1:1 DNA to compound molar ratio by spectrophotometric analysis.
The nature of assay [4]: Binding affinity to 5'-d(ATATATGATATA)-3'/5'-(TATATCATATAT)-3' DNA assessed as change in melting temperature at 1:1 DNA to compound molar ratio by spectrophotometric analysis.
Assay [5] can be described thus: Binding affinity to 5'-d(GTAATATTAC)2-3' DNA assessed as change in melting temperature at 1:1 DNA to compound molar ratio by spectrophotometric analysis.
For assay [6], the system named is Nucleic Acid. Put plainly: Induction of DNA intercalation using 5'-r(GUCCGCGGAC)2-3' at 250 uM by UV-vis spectrophotometric analysis. In kind it is nucleic-acid assay.
The test system of assay [7] is Nucleic Acid. The experiment in a line: Induction of DNA intercalation using 5'-d(GTCCGCGGAC)2-3' at 1:0, 1:0.5, 1:1, 1:1.5, 1:2 DNA to compound molar ratio by CD spectroscopic analysis. It is filed as nucleic-acid assay.
The nature of assay [8]: Binding affinity to 5'-d(GTCCGCGGAC)2-3' DNA assessed as change in melting temperature at 1:1 DNA to compound molar ratio by spectrophotometric analysis.
The subject of assay [9] is Nucleic Acid. The experiment in a line: Induction of DNA intercalation using 5'-d(GCGCGCGC)2-3' at 250 uM by UV-vis spectrophotometric analysis. It is filed as nucleic-acid assay.
For assay [10], the system named is Nucleic Acid. Put plainly: Induction of DNA intercalation using 5'-d(ATATATGATATA)-3'/5'-(TATATCATATAT)-3' at 250 uM by UV-vis spectrophotometric analysis. It is filed as nucleic-acid assay.
The subject of assay [11] is Nucleic Acid. The experiment in a line: Induction of DNA intercalation using 5'-r(GCGCGCGC)2-3' at 250 uM by UV-vis spectrophotometric analysis. It is filed as nucleic-acid assay.
Assay [12] concerns Nucleic Acid. The experiment in a line: Induction of DNA intercalation using 5'-d(CGATCG)2-3' by NMR analysis. In kind it is nucleic-acid assay.
Assay [13] has as its system Nucleic Acid. Put plainly: Induction of DNA intercalation using 5'-d(GTCCGTCGGAC)-3'/5'-(GTCCGACGGAC)-3' at 250 uM by UV-vis spectrophotometric analysis. It is filed as nucleic-acid assay.
The nature of assay [14]: Binding affinity to 5'-d(GCGCGCGC)2-3' DNA assessed as change in melting temperature at 1:1 DNA to compound molar ratio by spectrophotometric analysis.
Assay [15] is described as follows: Binding affinity to 5'-r(GCGCGCGC)2-3' DNA assessed as change in melting temperature at 1:1 DNA to compound molar ratio by spectrophotometric analysis.
Assay [16] concerns Nucleic Acid. The experiment in a line: Induction of DNA intercalation using 5'-d(ATATAGTATATA)-3'/5'-(TATATACTATAT)-3' at 250 uM by UV-vis spectrophotometric analysis. In kind it is nucleic-acid assay.
Assay [17] relates to Nucleic Acid. Put plainly: Induction of DNA intercalation using 5'-d(ATATATATATAT)2-3' at 250 uM by UV-vis spectrophotometric analysis. In kind it is nucleic-acid assay.
A short description of assay [18]: Binding affinity to 5'-d(ATATATATATAT)2-3' DNA assessed as change in melting temperature at 1:1 DNA to compound molar ratio by spectrophotometric analysis.
The test system of assay [19] is Nucleic Acid. The experiment in a line: Induction of DNA intercalation using 5'-d(GTAATATTAC)2-3' at 250 uM by UV-vis spectrophotometric analysis. In kind it is nucleic-acid assay.
A short description of assay [20]: Binding affinity to 5'-r(GUCCGCGGAC)2-3' DNA assessed as change in melting temperature at 1:1 DNA to compound molar ratio by spectrophotometric analysis.

For the molecule `CN(C)CCN1C(=O)c2cccc3cc([N+](=O)[O-])cc(c23)C1=O`, the ΔTm in assay [1] was determined as 5 °C; in assay [3] it was 11.7 °C; in assay [4], 17.2 °C; in [5], 12.6 °C; in [8], 13.3 °C; in assay [14], 14.3 °C. The results for the ΔTm in [15], in assay [18] and in assay [20] were 1.8 °C, 0 °C and 2.2 °C, respectively. The result in assay [2], in [6], in assay [7], in assay [9], in [10] and in assay [11] was Active. For the same molecule, the outcome in assay [12], in assay [13], in assay [16], in assay [17] and in [19] was Active.
